Experimental data published in patent US20110046131A1, “PURINES AS PKC-THETA INHIBITORS” (N.V. Organon and Pharmacopeia, LLC, priority 2006, published 2011).
One block for each compound: values may come before it.

Assays:
Format in all cases: biochemical
[1] = molecular target: T1, SGK kinase (Homo sapiens, UniProt O00141); test: IC50 for SGK kinase (selectivity); conditions: for IC50: read-out: IC50-SGK1
T1 sequence (O00141 1-431): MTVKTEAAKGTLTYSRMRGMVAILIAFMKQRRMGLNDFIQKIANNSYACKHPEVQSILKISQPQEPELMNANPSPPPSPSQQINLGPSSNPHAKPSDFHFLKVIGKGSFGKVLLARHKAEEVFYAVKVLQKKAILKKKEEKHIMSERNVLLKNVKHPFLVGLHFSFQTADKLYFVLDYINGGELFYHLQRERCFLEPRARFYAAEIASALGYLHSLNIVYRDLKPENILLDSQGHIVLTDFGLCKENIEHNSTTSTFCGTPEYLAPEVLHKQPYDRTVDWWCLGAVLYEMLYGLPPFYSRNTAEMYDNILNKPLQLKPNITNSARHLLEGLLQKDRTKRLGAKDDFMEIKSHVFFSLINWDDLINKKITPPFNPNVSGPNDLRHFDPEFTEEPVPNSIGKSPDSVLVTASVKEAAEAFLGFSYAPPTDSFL
Protocol: Entries identified with “1” had values above 250 nM; entries identified with “2” had values above 1 μM; entries identified with “3” had values above 10 μM.

[2] = molecular target: T2, PKC alpha (Homo sapiens, UniProt P17252); test: Ki Pan Vera (PV) potency for PKC alpha; conditions: Ki Pan Vera (PV) of PKC alpha
T2 construct: purchased Pan Vera
Protocol: [The source words this procedure for another target and reports this target under the same test.] (§1) For Ki Pan Vera (PV) of PKCθ, entries identified with “A” had values below 100 nM; entries identified with “B” had values below 1 μM; and entries identified with “C” had values below 10 μM.

[3] = molecular target: T3, PKCθ (Homo sapiens, UniProt Q04759); test: Ki Pan Vera (PV) potency for PKCθ; conditions: Ki Pan Vera (PV) of PKCθ
T3 construct: purchased Pan Vera
T3 sequence (Q04759 whole entry): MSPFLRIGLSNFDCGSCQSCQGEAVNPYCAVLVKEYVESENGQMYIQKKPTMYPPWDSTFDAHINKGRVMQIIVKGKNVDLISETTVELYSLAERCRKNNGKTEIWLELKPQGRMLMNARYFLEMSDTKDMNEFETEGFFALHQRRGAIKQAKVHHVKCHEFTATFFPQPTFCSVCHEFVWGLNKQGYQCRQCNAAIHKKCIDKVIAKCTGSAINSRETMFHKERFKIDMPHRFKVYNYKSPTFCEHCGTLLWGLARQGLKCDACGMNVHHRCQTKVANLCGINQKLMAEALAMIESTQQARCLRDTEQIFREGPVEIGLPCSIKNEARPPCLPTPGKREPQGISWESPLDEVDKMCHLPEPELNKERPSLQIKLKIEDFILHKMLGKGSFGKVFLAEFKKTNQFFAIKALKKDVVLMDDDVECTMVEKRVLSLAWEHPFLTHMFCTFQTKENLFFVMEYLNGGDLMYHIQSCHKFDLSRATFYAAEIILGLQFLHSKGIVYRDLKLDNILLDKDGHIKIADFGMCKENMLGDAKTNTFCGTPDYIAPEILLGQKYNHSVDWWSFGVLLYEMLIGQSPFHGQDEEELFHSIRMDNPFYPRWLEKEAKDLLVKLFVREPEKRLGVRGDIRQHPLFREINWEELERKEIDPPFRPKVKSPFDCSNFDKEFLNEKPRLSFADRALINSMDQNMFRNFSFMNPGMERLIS
Protocol: as §1

[4] = molecular target: T4, PKC delta (Homo sapiens, UniProt Q05655); test: Ki Pan Vera (PV) potency for PKC delta; conditions: Ki Pan Vera (PV) of PKC delta
T4 construct: purchased Pan Vera
T4 sequence (Q05655 whole entry): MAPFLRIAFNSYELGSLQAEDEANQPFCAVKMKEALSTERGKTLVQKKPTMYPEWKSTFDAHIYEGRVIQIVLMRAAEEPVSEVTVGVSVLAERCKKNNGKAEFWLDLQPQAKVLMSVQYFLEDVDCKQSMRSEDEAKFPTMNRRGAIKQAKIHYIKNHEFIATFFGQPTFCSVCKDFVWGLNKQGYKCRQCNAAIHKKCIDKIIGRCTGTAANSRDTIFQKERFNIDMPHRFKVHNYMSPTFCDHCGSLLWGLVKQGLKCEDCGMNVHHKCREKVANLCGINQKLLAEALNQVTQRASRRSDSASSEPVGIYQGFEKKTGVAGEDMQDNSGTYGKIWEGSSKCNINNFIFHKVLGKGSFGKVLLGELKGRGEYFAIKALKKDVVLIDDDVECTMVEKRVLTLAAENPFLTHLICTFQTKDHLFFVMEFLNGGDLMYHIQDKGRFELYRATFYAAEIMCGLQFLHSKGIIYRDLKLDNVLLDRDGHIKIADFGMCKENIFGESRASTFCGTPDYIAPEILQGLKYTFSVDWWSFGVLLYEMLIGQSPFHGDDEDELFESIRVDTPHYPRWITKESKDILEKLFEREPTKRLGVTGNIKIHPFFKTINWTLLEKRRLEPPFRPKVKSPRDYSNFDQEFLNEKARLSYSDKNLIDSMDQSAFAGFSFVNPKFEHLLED
Protocol: [The source words this procedure for another target and reports this target under the same test.] as §1

Compound: NCCCCCCn1c(-c2c(Cl)cccc2Cl)nc2cnc(NCc3ccccc3F)nc21 [Compound 122]
IC50-SGK1 [1]: Inactive
Ki [2]: > 10 µM
Ki [3]: < 1 µM
Ki [4]: > 1 µM

Compound: Clc1cc(Cl)cc(CNc2ncc3nc(-c4c(Cl)cccc4Cl)n(C[C@@H]4CCCNC4)c3n2)c1 [Compound 134]
IC50-SGK1 [1]: Inactive
Ki [2]: > 10 µM
Ki [3]: < 10 µM
Ki [4]: > 1 µM

Compound: Clc1cccc(Cl)c1-c1nc2cnc(NCc3ccccc3)nc2n1CCC1CCNCC1 [Compound 141]
IC50 [1]: > 1 µM
Ki [2]: > 10 µM
Ki [3]: < 1 µM
Ki [4]: > 10 µM

Compound: Fc1ccc(CNc2ncc3nc(-c4c(Cl)cccc4Cl)n(CCC4CCNCC4)c3n2)c(F)c1 [Compound 148]
IC50 [1]: > 10 µM
Ki [2]: > 1 µM
Ki [3]: < 1 µM
Ki [4]: > 1 µM

Compound: Fc1ccccc1CNc1ncc2nc(-c3c(Cl)cccc3Cl)n(CC3CCNC3)c2n1 (stereo not shown) [Compound 150]
IC50-SGK1 [1]: Inactive
Ki [2]: > 1 µM
Ki [3]: < 1 µM
Ki [4]: > 1 µM

Compound: Clc1cccc(Cl)c1-c1nc2cnc(NCc3ccccc3)nc2n1CC1CCNC1 (stereo not shown) [Compound 151]
IC50 [1]: > 10 µM
Ki [2]: > 1 µM
Ki [3]: < 1 µM
Ki [4]: > 1 µM

Compound: Fc1ccccc1CNc1ncc2nc(-c3c(Cl)cccc3Cl)n(C[C@H]3CCNC3)c2n1 [Compound 153]
IC50 [1]: > 1 µM
Ki [2]: > 1 µM
Ki [3]: < 1 µM
Ki [4]: > 1 µM

Compound: Clc1ccc(CNc2cc3c(cn2)nc(-c2c(Cl)cccc2Cl)n3CCC2CCNCC2)cc1Cl [Compound 154]
IC50 [1]: > 1 µM
Ki [2]: > 1 µM
Ki [3]: < 10 µM
Ki [4]: > 1 µM

Compound: Fc1ccc(CNc2cc3c(cn2)nc(-c2c(F)cccc2Cl)n3C[C@@H]2CCNC2)cc1Cl [Compound 155]
IC50-SGK1 [1]: Inactive
Ki [2]: > 1 µM
Ki [3]: < 1 µM
Ki [4]: > 1 µM

Compound: Fc1ccccc1CNc1ncc2nc(-c3c(F)cccc3Cl)n(C[C@H]3CCCNC3)c2n1 [Compound 156]
IC50 [1]: > 1 µM
Ki [2]: > 10 µM
Ki [3]: < 1 µM
Ki [4]: > 1 µM

Compound: Fc1ccc(CNc2ncc3nc(-c4c(Cl)cccc4Cl)n(CC4CCNC4)c3n2)cc1 (stereo not shown) [Compound 158]
IC50 [1]: > 10 µM
Ki [2]: > 1 µM
Ki [3]: < 1 µM
Ki [4]: > 1 µM

Compound: Fc1ccccc1CNc1ncc2nc(-c3c(F)cccc3Cl)n(CC3CCCNC3)c2n1 (stereo not shown) [Compound 160]
IC50-SGK1 [1]: Inactive
Ki [2]: > 1 µM
Ki [3]: < 1 µM
Ki [4]: > 1 µM

Compound: Fc1ccccc1CNc1ncc2nc(-c3c(F)cccc3Cl)n(C[C@H]3CCCNC3)c2n1 [Compound 162]
IC50-SGK1 [1]: Inactive
Ki [2]: > 1 µM
Ki [3]: < 1 µM
Ki [4]: > 10 µM

Compound: Fc1ccc(CNc2ncc3nc(-c4c(Cl)cccc4Cl)n(CCC4CCNCC4)c3n2)cc1 [Compound 163]
IC50-SGK1 [1]: Inactive
Ki [2]: > 1 µM
Ki [3]: < 1 µM
Ki [4]: > 1 µM

Compound: Fc1ccccc1CNc1ncc2nc(-c3c(Cl)cccc3Cl)n(CCC3CCCNC3)c2n1 (stereo not shown) [Compound 164]
IC50-SGK1 [1]: Inactive
Ki [2]: > 1 µM
Ki [3]: < 1 µM
Ki [4]: > 1 µM

Compound: C[C@H](Nc1ncc2nc(-c3c(Cl)cccc3Cl)n(CC3CCNC3)c2n1)c1ccccc1F (stereo partly shown) [Compound 166]
IC50 [1]: > 10 µM
Ki [2]: > 1 µM
Ki [3]: < 1 µM
Ki [4]: > 1 µM

Next, values leading:

IC50 [1]: > 10 µM
Ki [2]: > 1 µM
Ki [3]: < 1 µM
Ki [4]: > 1 µM
Compound: Fc1ccc(F)c(CNc2ncc3nc(-c4c(F)cccc4Cl)n(C[C@@H]4CCCNC4)c3n2)c1 [Compound 124]

IC50-SGK1 [1]: Inactive
Ki [2]: > 1 µM
Ki [3]: < 1 µM
Ki [4]: > 1 µM
Compound: Fc1ccc(F)c(CNc2ncc3nc(-c4c(Cl)cccc4Cl)n(C[C@H]4CCNC4)c3n2)c1 [Compound 125]

IC50 [1]: > 1 µM
Ki [2]: > 1 µM
Ki [3]: < 1 µM
Ki [4]: > 1 µM
Compound: Fc1cccc(CNc2ncc3nc(-c4c(Cl)cccc4Cl)n(CCC4CCNCC4)c3n2)c1 [Compound 126]

IC50-SGK1 [1]: Inactive
Ki [2]: > 1 µM
Ki [3]: < 1 µM
Ki [4]: > 1 µM
Compound: Fc1cccc(CNc2ncc3nc(-c4c(Cl)cccc4Cl)n(C[C@H]4CCNC4)c3n2)c1 [Compound 127]

IC50-SGK1 [1]: Inactive
Ki [2]: > 1 µM
Ki [3]: < 1 µM
Ki [4]: > 1 µM
Compound: Fc1ccc(CNc2ncc3c(n2)C(C[C@@H]2CCCNC2)C(c2c(F)cccc2Cl)=N3)cc1 (stereo partly shown) [Compound 128]

IC50-SGK1 [1]: Inactive
Ki [2]: > 1 µM
Ki [3]: < 1 µM
Ki [4]: > 1 µM
Compound: Fc1ccccc1CNc1ncc2c(n1)C(C[C@H]1CCCNC1)C(c1c(Cl)cccc1Cl)=N2 (stereo partly shown) [Compound 129]

IC50-SGK1 [1]: Inactive
Ki [2]: > 1 µM
Ki [3]: < 1 µM
Ki [4]: > 1 µM
Compound: Fc1ccc(CNc2ncc3c(n2)C(C[C@H]2CCNC2)C(c2c(Cl)cccc2Cl)=N3)cc1 (stereo partly shown) [Compound 130]

IC50-SGK1 [1]: Inactive
Ki [2]: > 1 µM
Ki [3]: < 1 µM
Ki [4]: > 1 µM
Compound: Fc1ccc(Cl)cc1CNc1ncc2c(n1)C(C[C@H]1CCNC1)C(c1c(Cl)cccc1Cl)=N2 (stereo partly shown) [Compound 131]

IC50-SGK1 [1]: Inactive
Ki [2]: > 1 µM
Ki [3]: < 1 µM
Ki [4]: > 1 µM
Compound: Clc1cccc(Cl)c1-c1nc2cnc(NCc3ccccc3)nc2n1C[C@H]1CCNC1 [Compound 133]

IC50-SGK1 [1]: Inactive
Ki [2]: > 1 µM
Ki [3]: < 1 µM
Ki [4]: > 1 µM
Compound: Clc1cccc(CNc2ncc3nc(-c4c(Cl)cccc4Cl)n(C[C@H]4CCNC4)c3n2)c1 [Compound 135]

IC50-SGK1 [1]: Inactive
Ki [2]: > 1 µM
Ki [3]: < 1 µM
Ki [4]: > 1 µM
Compound: Fc1ccc(CNc2ncc3nc(-c4ccccc4Cl)n(C[C@@H]4CCCNC4)c3n2)cc1F [Compound 136]

IC50-SGK1 [1]: Inactive
Ki [2]: > 1 µM
Ki [3]: < 1 µM
Ki [4]: > 1 µM
Compound: C[C@H](Nc1ncc2nc(-c3c(Cl)cccc3Cl)n(CC3CCNC3)c2n1)c1ccccc1F (stereo partly shown) [Compound 138]

IC50 [1]: > 10 µM
Ki [2]: > 1 µM
Ki [3]: < 1 µM
Ki [4]: > 1 µM
Compound: Fc1ccc(CNc2ncc3nc(-c4c(Cl)cccc4Cl)n(CC4CCNC4)c3n2)cc1F (stereo not shown) [Compound 142]

IC50-SGK1 [1]: Inactive
Ki [2]: > 1 µM
Ki [3]: < 1 µM
Ki [4]: > 1 µM
Compound: NCCN1CCC(n2c(-c3c(Cl)cccc3Cl)nc3cnc(NCc4ccccc4F)nc32)CC1 [Compound 143]

IC50-SGK1 [1]: Inactive
Ki [2]: > 1 µM
Ki [3]: < 1 µM
Ki [4]: > 1 µM
Compound: Fc1ccc(CNc2ncc3nc(-c4c(F)cccc4Cl)n(C[C@@H]4CCCNC4)c3n2)c(F)c1 [Compound 144]

IC50-SGK1 [1]: Inactive
Ki [2]: > 1 µM
Ki [3]: < 1 µM
Ki [4]: > 1 µM
Compound: Fc1cc(F)cc(CNc2ncc3nc(-c4c(Cl)cccc4Cl)n(CCC4CCNCC4)c3n2)c1 [Compound 146]

IC50-SGK1 [1]: Inactive
Ki [2]: > 1 µM
Ki [3]: < 1 µM
Ki [4]: > 1 µM
Compound: Fc1cccc(CNc2ncc3nc(-c4c(Cl)cccc4Cl)n(CC4CCNC4)c3n2)c1 (stereo not shown) [Compound 147]

IC50 [1]: > 10 µM
Ki [2]: > 0.25 µM
Ki [3]: < 0.1 µM
Ki [4]: > 0.25 µM
Compound: Fc1ccc(F)c(CNc2ncc3nc(-c4c(Cl)cccc4Cl)n(CC4CCNC4)c3n2)c1 (stereo not shown) [Compound 161]
